Each structure is given as a SMILES string.

These results are taken from ChEMBL document CHEMBL5331045, “Recent advances in β-lactamase inhibitor chemotypes and inhibition modes” (Eur J Med Chem, 2022).

Experiment [1] addresses T1, Metallo-beta-lactamase type 2 (Bacteria, UniProt C7C422). Put plainly: Inhibition of NDM1 (unknown origin) by differential scanning fluorimetry. In general terms: Differential scanning fluorimetry follows unfolding on heating by fluorescence.
A short description of experiment [2]: Inhibition of IMP7 (unknown origin) by differential scanning fluorimetry. Details: species or system Homo sapiens; call rule not given here.
Experiment [3] is described as follows: Inhibition of VIM1 (unknown origin) by differential scanning fluorimetry. Details: species or system Homo sapiens.
A short description of experiment [4]: Binding affinity to VIM2 (unknown origin) expressed in Escherichia coli BL21 (DE3) assessed as inhibition constant using IPM as substrate incubated for 5 mins. Details: species or system Homo sapiens.
The nature of experiment [5]: Binding affinity to IMP1 (unknown origin) expressed in Escherichia coli BL21 (DE3) assessed as inhibition constant using IPM as substrate incubated for 5 mins. The arrangement: species or system Homo sapiens.
The nature of experiment [6]: Inhibition of VIM5 (unknown origin). Details: species or system Homo sapiens.
Experiment [7] addresses T2, Beta-lactamase VIM-1 (Bacteria, UniProt Q8GDC1). Put plainly: Inhibition of VIM1 (unknown origin). Particulars: read-out: IC50.
The nature of experiment [8]: Inhibition of CphA (unknown origin). The arrangement: species or system Homo sapiens.
Experiment [9] has as its target T1, Metallo-beta-lactamase type 2. Put plainly: Inhibition of NDM1 (unknown origin). As to conditions: read-out: IC50.
Experiment [10] is described as follows: Inhibition of SPM1 (unknown origin). The arrangement: species or system Homo sapiens.
Experiment [11] is described as follows: Inhibition of VIM2 (unknown origin). The arrangement: species or system Bacteria.
Experiment [12] in a line: Inhibition of L1 (unknown origin). The arrangement: species or system Homo sapiens.
Experiment [13] can be described thus: Inhibition of IMP1 (unknown origin). Details: species or system Bacteria.
Experiment [14] in a line: Binding affinity to GOB18 (unknown origin) assessed as inhibition constant by measuring imipenem hydrolysis. Details: species or system Homo sapiens.
Experiment [15] can be described thus: Binding affinity to BCL1 (unknown origin) assessed as inhibition constant by measuring imipenem hydrolysis. The arrangement: species or system Homo sapiens.
Experiment [16] can be described thus: Binding affinity to VIM2 (unknown origin) assessed as inhibition constant by measuring imipenem hydrolysis. Details: species or system Homo sapiens.
Experiment [17] in a line: Binding affinity to IMP1 (unknown origin) assessed as inhibition constant by measuring imipenem hydrolysis. The arrangement: species or system Homo sapiens.
A short description of experiment [18]: Binding affinity to L1 (unknown origin) assessed as inhibition constant by measuring imipenem hydrolysis. Details: species or system Homo sapiens.
Experiment [19] in a line: Binding affinity to Sfh1 (unknown origin) assessed as inhibition constant by measuring imipenem hydrolysis. The arrangement: species or system Homo sapiens.
Experiment [20] is described as follows: Inhibition of IMP1 (unknown origin) by spectroscopic analysis. Details: species or system Homo sapiens.
Experiment [21] addresses T1, Metallo-beta-lactamase type 2. Put plainly: Inhibition of NDM1 (unknown origin) by spectroscopic analysis.
Experiment [22] is described as follows: Inhibition of VIM2 (unknown origin) by spectroscopic analysis. The arrangement: species or system Homo sapiens.
Experiment [23] is described as follows: Inhibition of L1 (unknown origin) by spectroscopic analysis. Details: species or system Homo sapiens.
The nature of experiment [24]: Binding affinity to L1 (unknown origin) assessed as inhibition constant. Details: species or system Homo sapiens.
Experiment [25] can be described thus: Binding affinity to NDM1 (unknown origin) assessed as inhibition constant. Details: species or system Bacteria.
Experiment [26] can be described thus: Binding affinity to IMP1 (unknown origin) assessed as inhibition constant. The arrangement: species or system Bacteria.
Experiment [27] is described as follows: Binding affinity to VIM2 (unknown origin) assessed as inhibition constant. The arrangement: species or system Bacteria.
Experiment [28] in a line: Binding affinity to Sfh1 (unknown origin) assessed as inhibition constant. Details: species or system Homo sapiens.
Experiment [29] has as its target T2, Beta-lactamase VIM-1. Put plainly: Binding affinity to VIM1 (unknown origin) assessed as inhibition constant.
The nature of experiment [30]: Binding affinity to VIM4 (unknown origin) assessed as inhibition constant. Details: species or system Homo sapiens.
Experiment [31] has as its target T2, Beta-lactamase VIM-1. Put plainly: Inhibition of VIM1 (unknown origin) using dicefalotinodifluorofluorescein as substrate incubated for 30 mins.
A short description of experiment [32]: Binding affinity to KPC2 (unknown origin) assessed as inhibition constant. Details: species or system Homo sapiens.
The nature of experiment [33]: Binding affinity to Acinetobacter derived cephalosporinase 7 assessed as inhibition constant.
Experiment [34] is described as follows: Binding affinity to SHV-1 (unknown origin) assessed as inhibition constant. The arrangement: species or system Homo sapiens.
Experiment [35] is described as follows: Inhibition of Aeromonas hydrophila NDM1 preincubated for 30 mins followed by nitrocefin solution measured by UV based microtitre plate analysis.
Experiment [36] is described as follows: Inhibition of Aeromonas hydrophila VIM2 preincubated for 30 mins followed by nitrocefin solution measured by UV based microtitre plate analysis.
The nature of experiment [37]: Inhibition of Aeromonas hydrophila VIM4 preincubated for 30 mins followed by nitrocefin solution measured by UV based microtitre plate analysis.

T1 sequence (C7C422 whole entry): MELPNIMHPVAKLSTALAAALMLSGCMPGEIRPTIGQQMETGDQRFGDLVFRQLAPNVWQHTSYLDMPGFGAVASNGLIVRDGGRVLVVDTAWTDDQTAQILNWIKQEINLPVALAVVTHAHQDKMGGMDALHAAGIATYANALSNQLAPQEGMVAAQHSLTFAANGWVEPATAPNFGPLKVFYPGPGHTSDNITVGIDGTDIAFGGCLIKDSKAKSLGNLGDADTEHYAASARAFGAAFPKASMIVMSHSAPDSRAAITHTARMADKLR

What is called IC50 is the point on the concentration scale where inhibition reaches its midpoint. With `O=C(O)[C@H]1CCCCN1C(=O)C(CS)Cc1ccccc1` (stereo partly specified), the IC50 in [1] came out at 700 nM; in [2] it was 900 nM; in experiment [3], 4600 nM.
One may read the Ki as a measure of affinity in units of concentration, obtained from inhibition or displacement. For `Cc1oc(C)c(S(N)(=O)=O)c1C(=O)O`, the Ki in experiment [4] was 2810 nM; in experiment [5] it was 220 nM.
Turning to `C[C@H](CS)C(=O)N[C@H](Cc1c[nH]c2ccccc12)C(=O)O`, the IC50 is 175 nM in experiment [6]; 526 nM at Beta-lactamase VIM-1 [7]; ~400000 nM in [8]; 24800 nM in [9]; 890 nM in experiment [10]; 55 nM in experiment [11]. For the same compound, in [12], the 50% inhibitory concentration (IC50) is 16200 nM.
As for `Nc1nc2c(-c3ccc(S(=O)(=O)NC[C@H]4CCNC4)c(S(N)(=O)=O)c3-c3nnn[nH]3)cccc2s1`, the IC50 on Beta-lactamase VIM-1 [7] amounted to 0.125 nM; in experiment [13], 0.16 nM.
For `O=C(O)[C@@H]1CS[C@H]2CS[C@H](CS)N21`, the Ki in experiment [14] was 41000 nM; in experiment [15], 36000 nM; in experiment [16], 2900 nM; in experiment [17], 8000 nM; in experiment [18] it was 12000 nM; in [19] it was 260 nM.
As for `O=C(O)c1cccc(C(O)P(=O)(O)O)n1` (stereo unspecified), the IC50 in [20] is 7200 nM; in experiment [21] it was 322 nM; in [22], 1900 nM; in [23], 2050 nM.
Take `CCc1c(C(=O)O)c(S(N)(=O)=O)c(CC)n1C`: the Ki came out at 20 nM in experiment [4] and 260 nM in experiment [5].
With `COC(=O)[C@]1(CS)N[C@H](C(=O)O)CS1`, the Ki in [24] is 10000 nM; in experiment [25] (read-out: Ki), 5200 nM; in experiment [26] (read-out: Ki) it was 1000 nM; in experiment [27], 380 nM; in experiment [28] it was 160 nM.
With `C[C@H](CS)C(=O)N1CCC[C@@H]1C(=O)O` [D-CAPTOPRIL], the IC50 in [8] was determined as 72000 nM.
For the compound `N[C@H](CN[C@H](CN[C@@H](CC(=O)O)C(=O)O)C(=O)O)C(=O)O`, the IC50 in experiment [9] came out at 9900 nM; in experiment [11], 10800 nM.
`O=C(O)CCCn1c(-c2cccc(-c3ccccc3)c2)n[nH]c1=S`: the Ki was 5500 nM at Beta-lactamase VIM-1 [29]; 99800 nM in [25] (read-out: Ki); “Not Active” in [26]; 350 nM in [27]; 270 nM in experiment [30].
Consider `O=C(O)c1ccccc1CNn1c(-c2cccc(-c3ccccc3)c2)n[nH]c1=S`, for which the Ki on Beta-lactamase VIM-1 [29] was determined as 3600 nM; in experiment [25] (read-out: Ki) it was 8200 nM; in [26] (read-out: Ki) it was 76000 nM; in experiment [27], 240 nM; in experiment [30] it was 570 nM.
In turn, `O=C1C(SCCCS)CCN1c1ccccc1` (stereo unspecified) came in with an IC50 against Beta-lactamase VIM-1 [31] of 20 nM.
`C[C@H](CS)C(=O)N[C@@H](Cc1c[nH]c2ccccc12)C(=O)O`: the concentration for half-maximal inhibition (IC50) was 2190 nM in [6]; 33700 nM at Beta-lactamase VIM-1 [7]; > 400000 nM in experiment [8]; 64800 nM in experiment [9]; 260 nM in experiment [10]; 1060 nM in experiment [11]. Moreover, the IC50 in experiment [12] was determined as 97300 nM.
In the case of `O=C(O)c1ccccc1CCn1c(-c2cccc(OCCN3CCOCC3)c2)n[nH]c1=S`, the Ki on Beta-lactamase VIM-1 [29] was 4690 nM; in experiment [25], “Not Active”; in experiment [26], “Not Active”; in experiment [27], 340 nM; in experiment [30] it was 1270 nM.
Consider `O=C(Cc1cccs1)N[C@@H](Cn1cc(C(=O)O)nn1)B(O)O`, for which the Ki came to 800 nM in [32], 45 nM in experiment [33] and 130 nM in experiment [34].
For the compound `O=C(O)c1cccc(CP(=O)(O)O)n1`, the IC50 in experiment [20] turned out to be 3880 nM; in experiment [22], 1290 nM; in experiment [23], 1480 nM.
Consider `Nn1c(-c2cc3ccccc3[nH]2)n[nH]c1=S`, for which the figures for the IC50 in [35], in experiment [36] and in experiment [37] were 34000 nM, 14000 nM and 19000 nM, respectively.
